The values below are quoted from earlier work in US20230046963A1, “METHOD FOR DYEING KERATINOUS MATERIAL, COMPRISING THE USE OF AN ORGANOSILICON COMPOUND, A DYEING COMPOUND AND A PRE-TREATMENT AGENT” (Henkel AG & Co. KGaA, priority 2019, published 2023).

For the data set the following is noted: 25° C.

Turning to `O=C([O-])C1=NN(c2ccc(S(=O)(=O)[O-])cc2)C(=O)C1N=Nc1ccc(S(=O)(=O)[O-])cc1.[Na+].[Na+].[Na+]` (centres unmarked) [Acid Yellow 23, trisodium salt of 4,5-dihydro-5-oxo-1-(4-sulfophenyl)-4-((4-sulfophenyl)azo)-1H-pyrazole-3-carboxylic acid], the “solubility in water (in words)” value is “readily soluble in water”.
On to `Nc1cc(S(=O)(=O)[O-])cc2cc(S(=O)(=O)[O-])c(N=Nc3ccccc3)c(O)c12.[Na+].[Na+]` [Acid Red 33, disodium salt of 5-amino-4-hydroxy-3-(phenylazo)-naphthalene-2,7-disulphonate], for which the solubility in water was 2.5 mg/mL.
With “mixture of the sodium salts of mono- and disulfonic acids of 2-(2-quinolyl)-1H-indene-1,3(2H)-dione [Acid Yellow 3]”, the solubility in water is 20 mg/mL.
As to `O=S(=O)([O-])c1ccc(N=Nc2c(O)ccc3ccccc23)cc1.[Na+]` [Acid Orange 7, sodium salt of 4-[(2-hydroxy-1-naphthyl)azo]benzenesulfonate], the solubility in water entry was “more than 7 g/L”.
Turning to `O=C([O-])c1c(Cl)c(Cl)c(Cl)c(Cl)c1-c1c2c(Br)cc(=O)c(Br)c-2oc2c(Br)c(O)cc(Br)c12.O=C([O-])c1c(Cl)c(Cl)c(Cl)c(Cl)c1-c1c2c(Br)cc(=O)c(Br)c-2oc2c(Br)c(O)cc(Br)c12.[Na+].[Na+]` [Acid Red 92, disodium salt of 3,4,5,6-tetrachloro-2-(1,4,5,8-tetrabromo-6-hydroxy-3-oxoxanthen-9-yl)benzoic acid], the solubility in water result is “greater than 10 g/L”.
